Assay results published in ChEMBL document CHEMBL3124937, “Design, synthesis and biological evaluation of 7-nitro-1H-indole-2-carboxylic acid derivatives as allosteric inhibitors of fructose-1,6-bisphosphatase” (Bioorg Med Chem, 2014).

Experiments:
[1] = biological target: T1, Fructose-1,6-bisphosphatase 1 (Homo sapiens, UniProt P09467); assay: Inhibition of human recombinant FBPase expressed in Escherichia coli BL21(DE3) by phosphoglucose isomerase and glucose-6-phosphate dehydrogenase coupled assay
T1 sequence (P09467 whole entry): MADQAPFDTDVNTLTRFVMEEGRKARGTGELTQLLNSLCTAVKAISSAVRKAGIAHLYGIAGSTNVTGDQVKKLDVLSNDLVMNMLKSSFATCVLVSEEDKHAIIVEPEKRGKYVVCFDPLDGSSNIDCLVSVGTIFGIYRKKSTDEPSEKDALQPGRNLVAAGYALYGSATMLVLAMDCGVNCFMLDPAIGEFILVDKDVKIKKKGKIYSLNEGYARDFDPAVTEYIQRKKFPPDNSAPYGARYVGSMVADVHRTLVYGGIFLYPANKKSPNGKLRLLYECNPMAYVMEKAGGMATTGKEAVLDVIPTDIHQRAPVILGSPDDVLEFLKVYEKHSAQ

[2] = biological target: T1, Fructose-1,6-bisphosphatase 1; assay: Inhibition of FBPase (unknown origin)

IC50 [1] [µM]	IC50 [2] [nM]	SMILES
29.1	–	O=C(O)c1cc2c(Nc3cccc(C(F)(F)F)c3)ccc([N+](=O)[O-])c2[nH]1
> 50	–	Nc1cccc(Nc2ccc([N+](=O)[O-])c3[nH]c(C(=O)O)cc23)c1
> 50	–	Nc1cccc(-c2ccc([N+](=O)[O-])c3[nH]c(C(=O)O)cc23)c1
> 50	–	O=C(O)c1cc2c(Nc3ccccc3)ccc([N+](=O)[O-])c2[nH]1
> 50	–	N#Cc1cccc(-c2ccc([N+](=O)[O-])c3[nH]c(C(=O)O)cc23)c1
35.6	–	COc1cccc(-c2c(C(=O)O)[nH]c3c([N+](=O)[O-])cccc23)c1
> 50	–	CCCN(c1cccc(OC)c1)c1ccc([N+](=O)[O-])c2[nH]c(C(=O)O)cc12
> 50	–	O=C(O)c1cc2c(-c3cccc(C(F)(F)F)c3)ccc([N+](=O)[O-])c2[nH]1
4.3	–	Cc1cccc(Nc2ccc([N+](=O)[O-])c3[nH]c(C(=O)O)cc23)c1
10.3	–	CC(C)Cc1c(C(=O)O)[nH]c2c([N+](=O)[O-])cccc12
> 50	–	O=C(O)c1cc2c(Nc3cccc(Cl)c3)ccc([N+](=O)[O-])c2[nH]1
25.9	–	Cc1cccc(-c2ccc([N+](=O)[O-])c3[nH]c(C(=O)O)cc23)c1
> 50	–	O=C(O)c1cc2c(-c3ccc(Cl)cc3)ccc([N+](=O)[O-])c2[nH]1
0.99	–	CCc1c(C(=O)O)[nH]c2c([N+](=O)[O-])cc(CC(C)C)cc12
4.5	–	O=C(O)c1[nH]c2c([N+](=O)[O-])cccc2c1-c1cccc(F)c1
3.7	–	CC(=O)Nc1cccc(-c2cc([N+](=O)[O-])c3[nH]c(C(=O)O)cc3c2)c1
18.5	–	CC(=O)Nc1cccc(-c2ccc([N+](=O)[O-])c3[nH]c(C(=O)O)cc23)c1
> 50	–	O=C(O)c1cc2c(Nc3cccc([N+](=O)[O-])c3)ccc([N+](=O)[O-])c2[nH]1
> 50	–	O=C(O)c1cc2c(-c3cccc(Cl)c3)ccc([N+](=O)[O-])c2[nH]1
33.9	–	Cc1ccc(Nc2ccc([N+](=O)[O-])c3[nH]c(C(=O)O)cc23)cc1
5.4	–	CC(C)Cc1cc([N+](=O)[O-])c2[nH]c(C(=O)O)cc2c1

IC50 [1] [µM]	IC50 [2] [nM]	SMILES
> 50	–	COc1cccc(N(C)c2ccc([N+](=O)[O-])c3[nH]c(C(=O)O)cc23)c1
3.4	–	O=C(O)c1cc2c(Nc3ccc([N+](=O)[O-])cc3)ccc([N+](=O)[O-])c2[nH]1
> 50	–	COc1cc(Nc2ccc([N+](=O)[O-])c3[nH]c(C(=O)O)cc23)cc(OC)c1OC
9.7	–	CC(C)Cc1ccc([N+](=O)[O-])c2[nH]c(C(=O)O)cc12
> 50	–	O=C(O)c1cc2c(-c3ccccc3)ccc([N+](=O)[O-])c2[nH]1
6.2	–	CCc1c(C(=O)O)[nH]c2c([N+](=O)[O-])cccc12
12.7	–	O=C(O)c1[nH]c2c([N+](=O)[O-])cccc2c1-c1ccccc1
> 50	–	COc1ccccc1Nc1ccc([N+](=O)[O-])c2[nH]c(C(=O)O)cc12
12.2	–	O=C(O)c1cc2c(Nc3ccc(C(F)(F)F)cc3)ccc([N+](=O)[O-])c2[nH]1
2	2500	O=C(O)CCc1c(C(=O)O)[nH]c2cc(Cl)cc(Cl)c12
> 50	–	COc1cccc(-c2ccc([N+](=O)[O-])c3[nH]c(C(=O)O)cc23)c1
> 50	–	N#Cc1ccc(-c2ccc([N+](=O)[O-])c3[nH]c(C(=O)O)cc23)cc1
> 50	–	O=C(O)c1cc2c(Nc3ccc(Cl)cc3)ccc([N+](=O)[O-])c2[nH]1
3.2	–	Nc1ncnc2c1ncn2[C@@H]1O[C@H](COP(=O)(O)O)[C@@H](O)[C@H]1O [ADENOSINE PHOSPHATE]
7.4	–	CC(=O)Nc1cccc(-c2c(C(=O)O)[nH]c3c([N+](=O)[O-])cccc23)c1
4.06	–	COc1cccc(Nc2cc([N+](=O)[O-])c3[nH]c(C(=O)O)cc3c2)c1
> 50	–	COc1ccc(Nc2ccc([N+](=O)[O-])c3[nH]c(C(=O)O)cc23)cc1
> 50	–	CC(=O)Nc1cccc(Nc2ccc([N+](=O)[O-])c3[nH]c(C(=O)O)cc23)c1
> 50	–	O=C(O)c1cc2c(-c3ccc(C(F)(F)F)cc3)ccc([N+](=O)[O-])c2[nH]1
25.6	–	COc1cccc(Nc2ccc([N+](=O)[O-])c3[nH]c(C(=O)O)cc23)c1
7.7	–	COc1ccc(Nc2ccc([N+](=O)[O-])c3[nH]c(C(=O)O)cc23)cc1OC
